Measured values reported in US10344054B2, “Angiotensin-1-receptor antagonists” (Ferring B.V., priority 2016, dated 2019).
Starred links: 1 amine or outer side, 2 acyl side, 3 side chain; linkers in the order of their positions; H or OH if unused. Non-standard residues stand in square brackets, D forms with d. Residues, ends and D or L forms follow the SMILES beside them. X1 = O=C(CN(C[C@H](O)[C@@H](O)[C@H](O)[C@H](O)CO)[*:1])[*:2]; dPhe(2-Me) = Cc1ccccc1C[C@@H](N)C(=O)O; Chg = N[C@H](C(=O)O)C1CCCCC1

Experiments:
hAT1R [1] = target: T1, hAT1R (Homo sapiens, UniProt P30556); test: FLIPR calcium flux assay, Part I: agonist activity; type: cell-based; conditions: ChanTest hAT1R stable cells; % MPE, percent of the maximal possible effect; read-out: hAT1R Agonist Efficacy Agonist (%) Ave
T1 sequence (P30556 1-359): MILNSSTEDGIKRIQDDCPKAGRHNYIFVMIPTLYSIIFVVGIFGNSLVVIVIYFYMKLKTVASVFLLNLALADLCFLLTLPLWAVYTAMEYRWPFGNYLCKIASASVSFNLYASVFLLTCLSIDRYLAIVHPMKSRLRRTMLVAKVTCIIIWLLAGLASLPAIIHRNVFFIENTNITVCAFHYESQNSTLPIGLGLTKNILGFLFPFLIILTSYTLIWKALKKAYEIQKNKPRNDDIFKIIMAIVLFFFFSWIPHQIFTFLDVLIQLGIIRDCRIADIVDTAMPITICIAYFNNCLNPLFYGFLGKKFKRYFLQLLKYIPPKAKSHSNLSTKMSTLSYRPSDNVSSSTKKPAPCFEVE

hAT1R [2] = target: T1, hAT1R; test: FLIPR calcium flux assay, Part II: antagonist activity against Angiotensin II; type: cell-based; conditions: for Emax: read-out: hAT1R Antagonist Efficacy Antag (%) Ave; for IC50: read-out: hAT1R Antagonist IC50 Ave; for hAT1R Antagonist Efficacy Antag (%) Ave: Angiotensin II 10 nM final concentration

Compound: CNCC(=O)N[C@@H](CCCNC(=N)N)C(=O)N[C@H](C(=O)N[C@@H](Cc1ccc(O)cc1)C(=O)N[C@H](C(=O)N[C@@H](Cc1c[nH]cn1)C(=O)N1CCC[C@H]1C(=O)N[C@H](Cc1ccccc1Cl)C(=O)O)C1CCCCC1)C(C)C [Compound 19, Sar-Arg-Val-Tyr-Chg-His-Pro-(D-Phe(2-Cl))—OH] (HELM PEPTIDE1{[Sar].R.V.Y.[O=C([C@@H](N[*:1])C1CCCCC1)[*:2]].H.P.[O=C(O)[C@@H](Cc1ccccc1Cl)N[*:1]]}$$$$V2.0)
- Emax (hAT1R [1]): 8%
- Emax (hAT1R [2]): 99%
- IC50 (hAT1R [2]): 14.1 nM

Compound: CNCC(=O)N[C@@H](CCCNC(=N)N)C(=O)N[C@H](C(=O)N[C@@H](Cc1ccc(O)c(O)c1)C(=O)N[C@H](C(=O)N[C@@H](Cc1c[nH]cn1)C(=O)N1CCC[C@H]1C(=O)N[C@H](Cc1ccccc1Cl)C(=O)O)C(C)C)C(C)C [Compound 32, Sar-Arg-Val-DOPA-Val-His-Pro-(D-Phe(2-Cl))—OH] (HELM PEPTIDE1{[Sar].R.V.[O=C([C@H](Cc1ccc(O)c(O)c1)N[*:1])[*:2]].V.H.P.[O=C(O)[C@@H](Cc1ccccc1Cl)N[*:1]]}$$$$V2.0)
- Emax (hAT1R [1]): 5%
- Emax (hAT1R [2]): 99%
- IC50 (hAT1R [2]): 24.1 nM

Compound: CNCC(=O)N[C@@H](CCCNC(=N)N)C(=O)N[C@H](C(=O)N[C@@H](Cc1ccc(O)cc1)C(=O)N[C@@H](Cc1ccsc1)C(=O)N[C@@H](Cc1c[nH]cn1)C(=O)N1CCC[C@H]1C(=O)N[C@H](Cc1ccccc1Cl)C(=O)O)C(C)C [Compound 22, Sar-Arg-Val-Tyr-(3-Thi)-His-Pro-(D-Phe(2-Cl))—OH] (HELM PEPTIDE1{[Sar].R.V.Y.[O=C([C@H](Cc1ccsc1)N[*:1])[*:2]].H.P.[O=C(O)[C@@H](Cc1ccccc1Cl)N[*:1]]}$$$$V2.0)
- Emax (hAT1R [1]): 3%
- Emax (hAT1R [2]): 99%
- IC50 (hAT1R [2]): 5 nM

Compound: CNCC(=O)N[C@@H](CCCNC(=N)N)C(=O)N[C@H](C(=O)N[C@@H](Cc1ccc(O)cc1)C(=O)N[C@H](C(=O)N[C@@H](Cc1c[nH]cn1)C(=O)N1CCC[C@H]1C(=O)N[C@H](Cc1ccccc1C(F)(F)F)C(=O)O)C1CCCCC1)C(C)C [Compound 26, Sar-Arg-Val-Tyr-Chg-His-Pro-(D-Phe(2-CF3))—OH] (HELM PEPTIDE1{[Sar].R.V.Y.[O=C([C@@H](N[*:1])C1CCCCC1)[*:2]].H.P.[O=C(O)[C@@H](Cc1ccccc1C(F)(F)F)N[*:1]]}$$$$V2.0)
- Emax (hAT1R [1]): 12%
- Emax (hAT1R [2]): 99%
- IC50 (hAT1R [2]): 32.9 nM

Compound: Cc1ccccc1C[C@@H](NC(=O)[C@@H]1CCCN1C(=O)[C@H](Cc1c[nH]cn1)NC(=O)[C@@H](NC(=O)[C@H](Cc1ccc(O)cc1)NC(=O)[C@@H](NC(=O)[C@H](CCCNC(=N)N)NC(=O)CNC[C@H](O)[C@@H](O)[C@H](O)[C@H](O)CO)C(C)C)C1CCCCC1)C(=O)O [Compound 46, Glac-Arg-Val-Tyr-Chg-His-Pro-(D-Phe(2-Me))—OH] (H-[X1]RVY[Chg]HP[dPhe(2-Me)]-OH)
- Emax (hAT1R [1]): 6%
- Emax (hAT1R [2]): 100%
- IC50 (hAT1R [2]): 22.2 nM

Compound: CNCC(=O)N[C@@H](CCCNC(=N)N)C(=O)N[C@H](C(=O)N[C@@H](Cc1ccc(O)cc1)C(=O)N[C@@H](Cc1ccccc1)C(=O)N[C@@H](Cc1c[nH]cn1)C(=O)N1CCC[C@H]1C(=O)N[C@H](Cc1cccc2ccccc12)C(=O)O)C(C)C [Compound 16, Sar-Arg-Val-Tyr-Phe-His-Pro-(D-1Nal)-OH] (HELM PEPTIDE1{[Sar].R.V.Y.F.H.P.[O=C(O)[C@@H](Cc1cccc2ccccc12)N[*:1]]}$$$$V2.0)
- Emax (hAT1R [1]): 6%
- Emax (hAT1R [2]): 99%
- IC50 (hAT1R [2]): 5 nM

Compound: CNCC(=O)N[C@@H](CCCNC(=N)N)C(=O)N[C@H](C(=O)N[C@@H](Cc1ccc(O)cc1)C(=O)N[C@@H](CC1CCCCC1)C(=O)N[C@@H](Cc1c[nH]cn1)C(=O)N1CCC[C@H]1C(=O)N[C@H](Cc1cccc2ccccc12)C(=O)O)C(C)C [Compound 14, Sar-Arg-Val-Tyr-Cha-His-Pro-(D-1Nal)-OH] (HELM PEPTIDE1{[Sar].R.V.Y.[Cha].H.P.[O=C(O)[C@@H](Cc1cccc2ccccc12)N[*:1]]}$$$$V2.0)
- Emax (hAT1R [1]): 5%
- Emax (hAT1R [2]): 100%
- IC50 (hAT1R [2]): 8 nM

Compound: CNCC(=O)N[C@@H](CCCNC(=N)N)C(=O)N[C@H](C(=O)N[C@@H](Cc1ccc(O)cc1)C(=O)N[C@H](C(=O)N[C@@H](Cc1c[nH]cn1)C(=O)N1CCC[C@H]1C(=O)N[C@H](Cc1cccc2ccccc12)C(=O)O)C1CCCCC1)C(C)C [Compound 34, Sar-Arg-Val-Tyr-Chg-His-Pro-(D-1Nal)-OH] (HELM PEPTIDE1{[Sar].R.V.Y.[O=C([C@@H](N[*:1])C1CCCCC1)[*:2]].H.P.[O=C(O)[C@@H](Cc1cccc2ccccc12)N[*:1]]}$$$$V2.0)
- Emax (hAT1R [1]): 5%
- Emax (hAT1R [2]): 100%
- IC50 (hAT1R [2]): 15.5 nM

Compound: CNCC(=O)N[C@@H](CCCNC(=N)N)C(=O)N[C@H](C(=O)N[C@@H](Cc1ccc(O)cc1)C(=O)N[C@@H](Cc1ccc(N)cc1)C(=O)N[C@@H](Cc1c[nH]cn1)C(=O)N1CCC[C@H]1C(=O)N[C@H](Cc1cccc2ccccc12)C(=O)O)C(C)C [Compound 13, Sar-Arg-Val-Tyr-Aph-His-Pro-(D-1Nal)-OH] (HELM PEPTIDE1{[Sar].R.V.Y.[Nc1ccc(C[C@H](N[*:1])C(=O)[*:2])cc1].H.P.[O=C(O)[C@@H](Cc1cccc2ccccc12)N[*:1]]}$$$$V2.0)
- Emax (hAT1R [1]): 7%
- Emax (hAT1R [2]): 100%
- IC50 (hAT1R [2]): 3.2 nM

Compound: CC[C@H](C)[C@H](NC(=O)[C@H](Cc1ccc(O)cc1)NC(=O)[C@@H](NC(=O)[C@H](CCCNC(=N)N)NC(=O)CNC)C(C)C)C(=O)N[C@@H](Cc1c[nH]cn1)C(=O)N1CCC[C@H]1C(=O)N[C@H](Cc1ccccc1Cl)C(=O)O [Compound 25, Sar-Arg-Val-Tyr-Ile-His-Pro-(D-Phe(2-Cl))—OH]
- Emax (hAT1R [1]): 2%
- Emax (hAT1R [2]): 100%
- IC50 (hAT1R [2]): 11.6 nM

Compound: CNCC(=O)N[C@@H](CCCNC(=N)N)C(=O)N[C@H](C(=O)N[C@@H](Cc1ccc(O)cc1)C(=O)N[C@H](C(=O)N[C@@H](Cc1c[nH]cn1)C(=O)N1CCC[C@H]1C(=O)N[C@H](Cc1ccccc1Cl)C(=O)O)C(C)C)C(C)C [Compound 4, Sar-Arg-Val-Tyr-Val-His-Pro-(D-Phe(2-Cl))—OH] (HELM PEPTIDE1{[Sar].R.V.Y.V.H.P.[O=C(O)[C@@H](Cc1ccccc1Cl)N[*:1]]}$$$$V2.0)
- Emax (hAT1R [1]): 6%
- Emax (hAT1R [2]): 99%
- IC50 (hAT1R [2]): 10.7 nM
